Literature values as cited in patent US9250230B2, “Using induced pluripotent stem cells for screening anti-neoplastic agents” (priority 2011, dated 2016).

Experiments:
[1] = tested on: chemical reprogramming to CiPSCs; conditions: TTNPB added to small-molecule reprogramming
iPS reprogramming = iPS reprogramming of somatic cells

| SMILES | enhancement of reprogramming efficiency of chemical reprogramming [1] | effect on reprogramming efficiency (iPS reprogramming) |
| --- | --- | --- |
| C/C(=C\c1ccc(C(=O)O)cc1)c1ccc2c(c1)C(C)(C)CCC2(C)C [TTNPB] | up to 40 fold |  |
| O=C(CO)[C@@H](O)[C@H](O)[C@H](O)COP(=O)(O)O [F6P, D-fructose-6-phosphate] |  | increased reprogramming efficiency |
| O=CC[C@@H](O)[C@H](O)[C@H](O)CO [2-DG, 2-deoxy-D-glucose] |  | inhibited the reprogramming efficiency |
